Tests used:
[1] = tested on: canine uterine regenerative cells (mesenchymal stem cell populations obtained from canine uterine tissue); experiment: Clumping of thawed previously-cryopreserved cells in saline bags with candidate anti-clumping agents; format: cell-based
Description: The cells used in this Example were purified mesenchymal stem cell populations obtained from canine uterine tissue (from passage 5). The cells were frozen in cryovials in 2% DMSO in VetStarch. The frozen cell samples were provided as 2 mL aliquots with a cell density of 10 million cells/mL. Cells from 3 different canine donors were included n the testing, labeled herein as Donor1; Donor2 and Donor3.
Experiments were performed in 50 mL bags commonly used for saline solutions to be administered to the bloodstream of patients. The experimental volume for the prepared cell suspension was between 5-10 mL depending on the run. Chemicals tested for their anti-clumping ability included dextrose, hydroxyethyl starch, and trehalose. Concentrations of these chemicals varied between experiments. Solutions of anti-clumping agents were prepared then injected into the bags. Concentration and volumes were computed so that targeted concentrations of anti-clumping agents were reached once the cells were injected in the bag. Volumes were chosen so that the cells were at one million cells/mL after preparation of the final composition in the bags.
Cryovials containing the cells were thawed in a 37° C. water bath until ice crystals just thawed. Cells were drawn out of the vial through a needle septum of the vial with an 18 gauge needle and slowly added to the bag through a needle septum of the bag so as not to lyse the cells. The vial was then washed with saline and this wash volume was also carefully injected into the bag through the needle septum.

[2] = tested on: canine uterine regenerative cells (mesenchymal stem cell populations obtained from canine uterine tissue); experiment: Post-bag cell viability by trypan blue staining; format: cell-based
Description: After time in the bag had expired, the cells were carefully removed from the bag with a syringe and 18 gauge needles. This volume was carefully placed in a 50 mL conical flask. It was mixed to ensure even distribution of cells, then mixed 1:1 with trypan blue and counted to determine viability. The volume was then centrifuged at 400 g for 5 minutes, supernatant aspirated, and resuspended in 2mL complete media. 1 mL of this cell suspension was then plated into a T25 flask. 24 hours later, the plates were observed and the condition of the cells noted.

[3] = Donor2 cells, 1 million/mL, trehalose 1.65%
[4] = Donor2 cells, 1 million/mL, trehalose 3.3%
[5] = summary, previously-cryopreserved cells after thawing

Q: With `OC[C@H]1O[C@H](O[C@H]2O[C@H](CO)[C@@H](O)[C@H](O)[C@H]2O)[C@H](O)[C@@H](O)[C@@H]1O` [trehalose, (2R,3S,4S,5R,6R)-2-(hydroxymethyl)-6-[(2R,3R,4S,5S,6R)-3,4,5-trihydroxy-6-(hydroxymethyl)oxan-2-yl]oxyoxane-3,4,5-triol] as the compound, how does the “clumps after 80 minutes” value ([1]; Donor1 cells (section 1.7 run), 1 million/mL, trehalose 3.3%) read?
A: Its value is “essentially all clumps were very small and barely visible with the exception of one or two slightly larger clumps”.

Q: What about the “time at which some clumping was observed” value ([1]; Donor1 cells (section 1.7 run), 1 million/mL, trehalose 3.3%, barely visible, very small clumps) of the same compound?
A: Its value is 20 min.

Q: And the “clumps after 80 minutes” value ([1]; Donor1 cells, 1 million/mL, trehalose 3.3% in final preparation)?
A: The value was “no clumps formed”.

Q: And the “clumps after 80 minutes” value [1, 3]?
A: Its value is “a few stringy clumps”.

Q: And the “time at which small clumps began to form” value [1, 3]?
A: Its value is 20 min.

Q: What about the “clumps after 80 minutes” value [1, 4] of the same compound?
A: Its value is “only several clumps and they remained small”.

Q: What about the “time at which small clumps began to form” value [1, 4] of the same compound?
A: Its value is 20 min.

Q: What about the “clumps after 80 minutes” value ([1]; Donor3 cells, 1 million/mL, trehalose 3.3%) of the same compound?
A: Its value is “only several very small clumps and they were still barely visible”.

Q: What about the “time at which clumps began to form” value ([1]; Donor3 cells, 1 million/mL, trehalose 3.3%, clumps very small and barely visible) of the same compound?
A: The value was 20 min.

Q: What about the “reduction of cell clumping as compared to saline alone” value [1, 5] of the same compound?
A: The value was “greatly reduces clumping”.

Q: And the “size/appearance of clumps present” value [1, 5]?
A: The value was “tiny generally spheroid particles barely visible to the human eye”.

Q: What about the “viability by trypan blue staining” value ([2]; Donor1 cells, end of clumping experiment, trehalose 3.3%, hydroxyethyl starch 25% in final preparation) of the same compound?
A: The value was 94%.

Q: What about the cell viability ([2]; summary, after exposure for an estimated duration of cell infusion) of the same compound?
A: Its cell viability is “above 90%”.

— patent US20160089401A1, “USES OF TREHALOSE IN CELL SUSPENSIONS” (Cook General Biotechnology LLC, priority 2014, published 2016)
